# From patent US20240043473A1, “NOOTROPIC PEPTIDES FOR TREATING LYSOSOMAL STORAGE DISEASES” (Phoenix Nest Inc., priority 2021, published 2024)
# Entries after “also recorded” stand apart in the source; their conditions may differ. No end group written: not given here.
# Test system: somatosensory cortex and hippocampus of Hgsnat^P304L mice
# Assay: Brain immunohistochemistry after chronic treatment (synaptic markers, astrocytosis, microgliosis, lysosomal puncta)
# Assay type: in vivo, mouse
# Experimental: Mouse brains were collected from animals perfused with 4% PFA in PBS and post-fixed in 4% PFA in PBS overnight. Brains were cryopreserved in 30% sucrose for 2 days at 4° C., embedded in Tissue-Tek® OCT Compound and stored at −80° C. Brains were cut in 40 μm-thick sections and stored in cryopreservation buffer (0.05 M sodium phosphate buffer pH 7.4, 15% sucrose, 40% ethylene glycol) at −20° C. pending immunohistochemistry. Mouse brain sections were washed 3 times with PBS and permeabilized/blocked by incubating in 5% bovine serum albumin (BSA), 0.3% Triton X-100 in PBS for 1 h at room temperature. Incubation with primary antibodies, diluted in 1% BSA, 0.3% Triton X-100 in PBS, was performed overnight at 4° C.
# The mouse brain sections were washed 3 times with PBS and counterstained with Alexa Fluor-labeled secondary antibodies (dilution 1:400) for 2 h at room temperature. After washing 3 times with PBS, the mouse brain sections were treated with TrueBlack® Lipofuscin Autofluorescence Quencher (Biotium, 23007, dilution 1:10) for 1 min, and then again washed 3 times with PBS. The slides were mounted with Prolong Gold Antifade mounting reagent with DAPI (Invitrogen, P36935) and analyzed using Leica DM 5500 Q upright confocal microscope (10×, 40×, and 63× oil objective, N.A. 1.4). Images were processed and quantified using ImageJ 1.50i software (National Institutes of Health. Bethesda, MD, USA) in a blinded fashion. Panels were assembled with Adobe Photoshop.
# Starting from 3 weeks of age, WT C57B16 and homozygous Hgsnat^P304L male and female mice were randomly divided in treatment and control groups (6-13 mice/sex/genotype/treatment; see Table I). The control group was daily administered with saline (5 μL to each nostril), while for the treatment group, saline was supplemented with 125 µg of AVP6/mL, which would result in a dose of approximately 50 μg/kg BW/day. The peptide formulation was prepared once, aliquoted and kept frozen at −80° C. until use. At 4 months, all mice were studied by EPM, OF, YM and NOR behavioral tests. Administration of the drug or saline was continued through the days on which the assays were conducted. Then approximately at 5 months 4-5 mice in each group were sacrificed. Their blood plasma was collected, and their tissues were either snap-frozen or fixed and cryopreserved to analyze CNS pathology as described above. For the remaining mice, treatment was continued and their behaviour was studied again at the age of 6 months using OF. NOR and YM tests. Starting from the age of 8 months, Hgsnat^P304L treated and untreated mice were daily studied for the signs of urinary retention. When such signs were detected, the mice were studied by ERG and sacrificed within 1-2 days. Finally, the remaining treated and untreated WT mice were studied by ERG and sacrificed at the end of the study, approximately at 10 months of age.
# After completion of the behavioural analysis at 4 months, 50% of mice in each group were sacrificed for analysis of CNS pathology and biochemical testing. To study the effect of the treatment on synaptic architecture, we have stained the brain sections for presynaptic (VGLUT1) and postsynaptic (PSD-95, BDNF) markers and quantified their levels in the CA1 area of hippocampi and in layers 3-4 of somatosensory cortex.
# The terminal CNS pathology was studied using the same set of biomarkers as at 4 months, either by IHC (astrocytosis, microgliosis, synaptic markers SYN1, PSD-95, […], BDNF) or by biochemical (total β-hexosaminidase activity, expression levels of inflammatory cytokines) assays.
# [1] = chronic daily 50 μg/kg BW from 3 weeks, Hgsnat^P304L mice at sacrifice (10-11 months)
substance,measurement,setting,value
"AVP6: N-terminally acetylated Semax, a nootropic peptide having the amino acid sequence of MEHFPGP (SEQ ID NO:1) (Ac-MEHFPGP)","levels of synaptic markers VGLUT1, PSD-95 and BDNF in CA1 hippocampus and somatosensory cortex","chronic daily 50 μg/kg BW from 3 weeks, Hgsnat^P304L mice at 5 months",are rescued
same,GFAP+ astrocytes and CD68+ activated microglia in cortex and hippocampus,"chronic daily 50 μg/kg BW from 3 weeks, Hgsnat^P304L mice at 5 months, vs saline",normalizes astrocytosis and microgliosis; also recorded: are reduced
same,levels of post-synaptic proteins PSD-95 and BDNF,[1],completely recovered; also recorded: are rescued in hippocampus and partially rescued in the somatosensory cortex
same,levels of presynaptic proteins GLUT1 (VGLUT1) and SYN1,[1],"either increased in the AVP6-treated as compared with saline-treated Hgsnat^P304L mice, or remained significantly lower than those in WT animals; also recorded: are rescued in hippocampus and partially rescued in the somatosensory cortex"
same,levels and sizes of LAMP2+/HS+ or GM2-ganglioside+ lysosomal puncta in cortical/hippocampal neurons,"chronic daily 50 μg/kg BW, Hgsnat^P304L mice at 5 months, vs saline",remained similar
same,"markers of astrocytosis and microgliosis, GFAP and CD68","chronic daily 50 μg/kg BW, Hgsnat^P304L mice at 10-11 months, vs saline, cortex levels remained above WT",significantly reduced; also recorded: reduces it; also recorded: reduces levels of activated GFAP+ astrocytes in the cortex (D) and CD68+ microglia in both cortex and hippocampus
same,LAMP2 levels in brain sections compared with WT,"chronic daily 50 μg/kg BW, Hgsnat^P304L mice at terminal timepoint",remained significantly increased
